Test results published in patent US8778400B2, “Nanoparticle-stabilized capsule formulation for treatment of inflammation” (University of South Australia, priority 2008, dated 2014).
Converted amounts (≈) assume the structure as drawn.

Assays:
[1] = In vitro dissolution of indomethacin under sink conditions (USP paddle); format: physicochemical; details: 25 mg indomethacin, phosphate buffer pH 7.2, sink conditions
Experimental: DSC was performed using TA Instruments Q100 differential scanning calorimeter. A 15 mg sample was heated in an aluminium pan at a rate of […] over a temperature range of 25-200° C., under a flow of dry nitrogen gas (80 ml/min). Instrument calibration was undertaken using an indium standard. Powder XRD patterns were obtained using Philips (PW 1050/25) X-ray diffractometer with CoKα radiation (45 kV, 35 mA). The samples were scanned between 10-50° (2θ) at a rate of 1.0°/min. […] The HPLC system (Hewlett Packard 1100) consisted of a series […] auto sampler and G1314A variable UV detector (Shimadzu Corporation). Separation was achieved using a LiChrospher 100 RP-18 analytical column (5 μm, 100 mm×4.6 mm i.d.). […] All chromatographic separations were performed at room temperature at a flow rate of 1 mL/min. The column eluent was monitored at a wavelength of 320 nm. […] The dissolution tests under sink conditions were performed using a USP paddle system (Vankel) and kept at a controlled 37° C. […] The paddle was rotated at 50 rpm. Samples (5 mL) were taken every 15 minutes for 3 h. […] The samples were measured using HPLC. […] With the conventional assumption that the rate and extent of drug dissolution directly reflects the concentration of readily absorbable drug in the intestinal lumen, it is proposed that capsules have the potential to enhance the oral absorption process. […]

[2] = Equilibrium solubility of celecoxib in phosphate buffer containing SLS; format: physicochemical; details: for folds of saturation volume (FSV): 900 ml media for 2 mg celecoxib; for solubility thermodynamic at 48 h: phosphate buffer, 37 °C, thermodynamic from solid
Experimental: The mixture was shaken in a thermostated mixer chamber (37° C.) for 48 h. Equilibrated samples were centrifuged at 9,400 g for 15 min to remove undissolved materials. The amount of celecoxib dissolved was assayed using the HPLC method outlined above.

[3] = In vitro dissolution study of celecoxib formulations (USP type II paddle); format: physicochemical; details: phosphate buffer, 0.5% SLS, 37° C.
Experimental: The in vitro dissolution study was performed in 900 ml of phosphate buffer (0.05 M, pH 7.2) containing 0, 0.05, and 0.5% (w/v) SLS, using USP 23 type II apparatus (paddle method) operating at 75±0.02 rpm. Each sample, containing ˜2 mg of celecoxib (equivalent to the amount used in the in vivo studies), was added into the dissolution medium maintained at 37±0.5° C. Aliquots of 3 ml were drawn at fixed time points and replaced with an equal volume of fresh dissolution medium. The drawn samples were centrifuged at 9,400 g for 15 min to remove undissolved materials. The supernatant was subjected to another cycle of centrifugation under the same conditions. An aliquot of 100 μl was taken from the middle portion of each centrifuged samples before diluted 2-fold with acetonitrile. […] The amount of celecoxib dissolved in the dissolution media was analysed by HPLC as described previously.
SLS was employed as a wetting and solubilising agent in the dissolution medium for simulating the sink effect in the gastrointestinal tract. The dissolution profiles of celecoxib from various formulations are illustrated in FIG. 3. […] The influence of silica nanoparticle layers of different hydrophobicity in controlling drug release from homogenised liquid emulsions has been previously investigated (Simovic et al., 2007). Here, the dissolution profiles of celecoxib from spray-dried capsules formulated with hydrophilic silica were obtained. Two dissolution parameters were evaluated from the study employing sink conditions: the dissolution efficiency (% DE), and the time to achieve 50% of drug dissolution (t50%) (Table 2). % DE is the area under the dissolution curve between two specified time points expressed as a percentage of the area of the rectangle described by 100% dissolution in the same time intervals, which can be calculated using Eq. (II): […]

[4] = Distribution ratio of celecoxib in Miglyol oil and phosphate buffer; format: physicochemical; details: Miglyol oil and blank phosphate buffer
[5] = Solubility of celecoxib in Miglyol oil; format: physicochemical; details: oil or lipid
[6] = cited from earlier work
[7] = after oral delivery; cited from earlier work
prostaglandin E2 = details: reported for humans, based on inhibitory effect on prostaglandin E2; cited from earlier work

SMILES	t50% (time taken to achieve 50% of drug dissolution) [1] [min]	folds of saturation volume (FSV) ([2]; 0% SLS)	folds of saturation volume (FSV) ([2]; 0.05% SLS)	folds of saturation volume (FSV) ([2]; 0.25% SLS)	folds of saturation volume (FSV) ([2]; 0.5% SLS)	folds of saturation volume (FSV) ([2]; 1.0% SLS)	solubility thermodynamic at 48 h ([2]; pH 7.2, aqueous buffer, phosphate buffer pH 7.2, 0% SLS) [µg/mL]	solubility thermodynamic at 48 h ([2]; pH 7.2, aqueous with cosolvent or surfactant or cyclodextrin, 0.05% SLS) [µg/mL]	solubility thermodynamic at 48 h ([2]; pH 7.2, aqueous with cosolvent or surfactant or cyclodextrin, 0.25% SLS) [µg/mL]	solubility thermodynamic at 48 h ([2]; pH 7.2, aqueous with cosolvent or surfactant or cyclodextrin, 0.5% SLS) [µg/mL]	solubility thermodynamic at 48 h ([2]; pH 7.2, aqueous with cosolvent or surfactant or cyclodextrin, 1.0% SLS) [µg/mL]	t50% (time to achieve 50% of drug dissolution) [3] [min]	Dissolution efficiency (% DE) ([3]; t = 5 min) [%]	Dissolution efficiency (% DE) ([3]; t = 15 min) [%]	Dissolution efficiency (% DE) ([3]; t = 180 min) [%]	distribution ratio (log D) [4]	solubility [5] [µg/mL]	log P [6]	Tmax [7]	minimum effective pain-relieving plasma concentration (prostaglandin E2) [ng/mL]
COc1ccc2c(c1)c(CC(=O)O)c(C)n2C(=O)c1ccc(Cl)cc1 [Indomethacin, 1-(4-chlorobenzoyl)-5-methoxy-2-methyl-1-H-indole-3-acetic acid]	58.8 ± 0.5																			
Cc1ccc(-c2cc(C(F)(F)F)nn2-c2ccc(S(N)(=O)=O)cc2)cc1 [celecoxib, 4-[5-(4-methylphenyl)-3-(trifluoromethyl)pyrazol-1-yl]benzenesulfonamide]		0.9	1.0	1.4	3.6	53.6	2.11 ± 0.01 (≈ 5.53 µM)	2.33 ± 0.15 (≈ 6.11 µM)	3.2 ± 0.16 (≈ 8.39 µM)	8 ± 0.39 (≈ 21 µM)	119 ± 29 (≈ 312 µM)	144.8	8.9 ± 1	24.3 ± 5	48.9 ± 3	3.7	~10000 (≈ 26200 µM)	≈ 3.5	approximately three	~155
